Source: US20150105252A1, “SUBSTITUTED PYRAZOLES AS HERBICIDES” (E I DU PONT DE NEMOURS AND COMPANY, priority 2013, published 2015)

Legend:
[1] = test system: pigweed; assay: Test A preemergence; assay type: in vivo, Amaranthus retroflexus; settings: preemergence; for Pigweed plant response rating (0 to 100 scale): visual injury approx. 10 days after treatment
Method in brief: (§1)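 After sowing in a sand–loam mix, pots received compound preemergence by directed soil spray, or postemergence once plants reached the one- to two-leaf stage (2–10 cm). Formulation contained surfactant in a non-phytotoxic solvent. Injury was scored visually after ~10 greenhouse days, 0–100 scale.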

[2] = test system: wheat; assay: Test A postemergence; assay type: in vivo, Triticum aestivum
Method in brief: as §1

[3] = test system: rice; assay: Test B flood; assay type: in vivo, Oryza sativa; settings: 250 g ai/ha, visual rating on 0 to 100 scale (0 no effect, 100 complete control), 13 to 15 days
Method in brief: (§2)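 Plants were grown to the 2-leaf stage, then pots were flooded to 3 cm above the soil and compounds were applied directly into the paddy water. Water depth was held for the whole test; after 13 to 15 days in a greenhouse, injury was visually rated against untreated controls (0 = no effect, 100 = complete control).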

[4] = test system: sedge, umbrella; assay: Test B flood; assay type: in vivo, Cyperus difformis; settings: 250 g ai/ha, visual rating on 0 to 100 scale (0 no effect, 100 complete control), 13 to 15 days
Method in brief: as §2

[5] = test system: galium; assay: Test C preemergence; assay type: in vivo, Galium aparine
Text: (§3) Seeds of plant species selected from blackgrass (Alopecurus myosuroides), ryegrass, Italian (Italian ryegrass, Lolium multiflorum), wheat (winter wheat, Triticum aestivum), galium (catchweed bedstraw, Galium aparine), corn (Zea mays), crabgrass, large (large crabgrass, Digitaria sanguinalis), foxtail, giant (giant foxtail, Setaria faberii), johnsongrass (Sorghum halepense), lambsquarters (Chenopodium album), morningglory (Ipomoea coccinea), nutsedge, yellow (yellow nutsedge, Cyperus esculentus), pigweed (redroot pigweed, Amaranthus retroflexus), ragweed (common ragweed, Ambrosia elation), soybean (Glycine max), barnyardgrass (Echinochloa crus-galli), oilseed rape (Brassica napus), waterhemp (common waterhemp, Amaranthus rudis), oat, wild (wild oat, Avena fatua), kochia (Kochia scoparia), Surinam grass (Brachiaria decumbens), foxtail, green (green foxtail, Setaria viridis), goosegrass (Eleusine indica), bromegrass, downy (downy bromegrass, Bromus tectorum), nightshade (eastern black nightshade, Solanum ptycanthum), cocklebur (common cocklebur, Xanthium strumarium), cupgrass, woolly (woolly cupgrass, Eriochloa villosa), bermudagrass (Cynodon dactylon), sunflower, (common oilseed sunflower, Helianthus annuus), Russian thistle (Salsola kali), and velvetleaf (Abutilon theophrasti) were planted into a blend of loam soil and sand and treated preemergence with test chemicals formulated in a non-phytotoxic solvent mixture which included a surfactant.
(§4) At the same time, plants selected from these crop and weed species and also chickweed (common chickweed, Stellaria media), canarygrass (littleseed canarygrass, Phalaris minor), and deadnettle (henbit deadnettle, Lamium amplexicaule), were planted in pots containing Redi-Earth® planting medium (Scotts Company, 14111 Scottslawn Road, Marysville, Ohio 43041) comprising spaghnum peat moss, vermiculite, wetting agent and starter nutrients and treated with postemergence applications of test chemicals formulated in the same manner. Plants ranged in height from 2 to 18 cm (1- to 4-leaf stage) for postemergence treatments. Treated plants and controls were maintained in a greenhouse for 13 to 15 days, after which time all species were compared to controls and visually evaluated. Plant response ratings, summarized in Table C, are based on a scale of 0 to 100 where 0 is no effect and 100 is complete control. A dash (-) response means no test result.

[6] = test system: corn; assay: Test C preemergence; assay type: in vivo, Zea mays
Text: as §3, §4

[7] = test system: ragweed; assay: Test C preemergence; assay type: in vivo, Ambrosia elation
Method in brief: (§5)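 Postemergence values come from plants sprayed at the 1- to 4-leaf stage (2–18 cm) in peat moss–vermiculite medium; preemergence values from seeds treated in a loam–sand blend. Both evaluated visually against controls after 13–15 greenhouse days, scale 0–100.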

[8] = test system: ryegrass, Italian; assay: Test C postemergence; assay type: in vivo, Lolium multiflorum
Text: as §3, §4

[9] = test system: crabgrass, large; assay: Test C postemergence; assay type: in vivo, Digitaria sanguinalis
Text: as §3, §4

[10] = test system: lambsquarters; assay: Test C postemergence; assay type: in vivo, Chenopodium album
Method in brief: as §5

[11] = test system: kochia; assay: Test C postemergence; assay type: in vivo, Kochia scoparia
Text: as §3, §4

[12] = test system: wheat; assay: Test C preemergence; assay type: in vivo, Triticum aestivum
Method in brief: as §5

[13] = test system: lambsquarters; assay: Test C preemergence; assay type: in vivo, Chenopodium album
Text: as §3, §4

[14] = 125 g ai/ha, visual injury, 0 to 100 scale, approx. 10 days
[15] = 500 g ai/ha, visual injury after approx. 10 days, 0 to 100 scale (0 no effect, 100 complete control)
[16] = postemergence, 125 g ai/ha, about 10 days, visual rating on 0 to 100 scale (0 no effect, 100 complete control)
[17] = preemergence, 31 g ai/ha, visual rating, scale 0 to 100 (0 no effect, 100 complete control), 13 to 15 days
[18] = preemergence, 62 g ai/ha, scale 0 to 100 (0 no effect, 100 complete control), 13 to 15 days
[19] = preemergence, 125 g ai/ha, scale 0 to 100, 0 is no effect, 100 is complete control
[20] = Postemergence, 31 g ai/ha, visually evaluated after 13 to 15 days
[21] = postemergence, 62 g ai/ha, scale 0 to 100
[22] = postemergence, 250 g ai/ha, scale 0 to 100 (0 no effect, 100 complete control)
[23] = postemergence, 125 g ai/ha, scale 0 to 100, 0 no effect, 100 complete control
[24] = Postemergence, 500 g ai/ha, 0 to 100 scale (0 no effect, 100 complete control)
[25] = Preemergence, 4 g ai/ha, scale 0 to 100
[26] = Preemergence, 8 g ai/ha, scale 0 to 100
[27] = Preemergence, 16 g ai/ha, scale 0 to 100
[28] = preemergence, 125 g ai/ha, 13 to 15 days, scale 0 to 100, 0 = no effect, 100 = complete control
[29] = preemergence, 250 g ai/ha, scale 0 to 100, 0 is no effect, 100 is complete control

Structure (SMILES): CCc1cc(-c2ccc(C(F)(F)F)cc2)nn1Cc1ccnc(C(F)(F)F)c1 [Compound 110]
- Pigweed plant response rating [1, 14]: 100
- Pigweed plant response rating [1, 15]: 100
- Wheat plant response rating ([2]; Postemergence, 500 g ai/ha, visual rating after approx. 10 days, 0 to 100 scale (0 no effect, 100 complete control)): 90
- Wheat plant response rating [2, 16]: 80
- Plant response rating, Rice [3]: 35
- Plant response rating, Sedge, Umbrella [4]: 80
- Plant response rating (scale of 0 to 100), Galium ([5]; Preemergence, 250 g ai/ha): 100
- Galium plant response rating [5, 17]: 50
- Galium plant response rating [5, 18]: 90
- Plant response rating (scale of 0 to 100), Corn ([6]; Preemergence, 250 g ai/ha): 10
- Corn plant response rating [6, 17]: 5
- Corn plant response rating [6, 18]: 5
- Corn plant response rating [6, 19]: 5
- Plant response rating (scale of 0 to 100), Ragweed ([7]; Preemergence, 250 g ai/ha): 75
- Ragweed plant response rating [7, 17]: 35
- Ragweed plant response rating [7, 18]: 35
- Ragweed plant response rating [7, 19]: 60
- Plant response rating (scale of 0 to 100 where 0 is no effect and 100 is complete control), Ryegrass, Italian [8, 20]: 20
- Ryegrass, Italian plant response rating [8, 21]: 20
- Plant response rating, Ryegrass, Italian [8, 22]: 40
- Plant response rating, Ryegrass, Italian [8, 23]: 35
- Plant response rating (scale of 0 to 100 where 0 is no effect and 100 is complete control), Crabgrass, Large [9, 20]: 35
- Crabgrass, Large plant response rating [9, 21]: 40
- Plant response rating, Crabgrass, Large [9, 22]: 60
- Plant response rating (scale of 0 to 100 where 0 is no effect and 100 is complete control), Lambsquarters [10, 20]: 40
- Lambsquarters plant response rating [10, 21]: 75
- Plant response rating, Lambsquarters [10, 22]: 98
- Plant response rating, Lambsquarters [10, 23]: 85
- Plant response rating (scale of 0 to 100 where 0 is no effect and 100 is complete control), Kochia [11, 20]: 90
- Kochia plant response rating [11, 21]: 90
- Plant response rating, Kochia [11, 22]: 90
- Plant response rating, Kochia [11, 23]: 90

Structure (SMILES): CCOc1cc(C(=O)NCC(F)(F)F)nn1Cc1cc(C(F)(F)F)nn1C [Compound 140]
- Pigweed plant response rating [1, 14]: 100
- Pigweed plant response rating [1, 15]: 100
- Wheat plant response rating [2, 24]: 70
- Wheat plant response rating [2, 16]: 40
- Plant response rating, Rice [3]: 40
- Plant response rating, Sedge, Umbrella [4]: 95
- Plant response rating, Wheat [12, 25]: 0
- Plant response rating, Wheat [12, 26]: 0
- Plant response rating, Wheat [12, 27]: 0
- Wheat plant response rating [12, 17]: 35
- Plant response rating, Galium [5, 25]: 50
- Plant response rating, Galium [5, 26]: 60
- Plant response rating, Galium [5, 27]: 98
- Galium plant response rating [5, 17]: 100
- Plant response rating, Corn [6, 25]: 0
- Plant response rating, Corn [6, 26]: 0
- Plant response rating, Corn [6, 27]: 0
- Corn plant response rating [6, 17]: 10
- Plant response rating, Lambsquarters [13, 25]: 5
- Plant response rating, Lambsquarters [13, 26]: 55
- Plant response rating, Lambsquarters [13, 27]: 40
- Lambsquarters plant response rating [13, 17]: 75
- Plant response rating, Ragweed [7, 25]: 5
- Plant response rating, Ragweed [7, 26]: 5
- Plant response rating, Ragweed [7, 27]: 25
- Ragweed plant response rating [7, 17]: 70

Structure (SMILES): O=C(NC1CC1)c1cc(CCF)n(Cc2ccnc(C(F)(F)F)c2)n1 [Compound 176]
- Pigweed plant response rating (0 to 100 scale) ([1]; 125 g ai/ha): 100
- Pigweed plant response rating [1, 15]: 100
- Wheat plant response rating [2, 24]: 60
- Wheat plant response rating [2, 16]: 10
- Plant response rating, Rice [3]: 0
- Plant response rating, Sedge, Umbrella [4]: 80
- Wheat plant response rating [12, 17]: 0
- Wheat plant response rating [12, 18]: 0
- Plant response rating, Wheat [12, 28]: 5
- Wheat plant response rating [12, 29]: 85
- Galium plant response rating [5, 17]: 85
- Galium plant response rating [5, 18]: 85
- Plant response rating, Galium [5, 28]: 98
- Galium plant response rating [5, 29]: 100
- Corn plant response rating [6, 17]: 5
- Corn plant response rating [6, 18]: 5
- Plant response rating, Corn [6, 28]: 90
- Corn plant response rating [6, 29]: 90
- Lambsquarters plant response rating [13, 17]: 80
- Lambsquarters plant response rating [13, 18]: 98
- Plant response rating, Lambsquarters [13, 28]: 100
- Lambsquarters plant response rating [13, 29]: 100
- Ragweed plant response rating [7, 17]: 85
- Ragweed plant response rating [7, 18]: 100
- Plant response rating, Ragweed [7, 28]: 100
- Ragweed plant response rating [7, 29]: 95

Structure (SMILES): CCCc1cc(C(=O)NOC(C)C)nn1Cc1cc(C(F)(F)F)nn1C [Compound 203]
- Pigweed plant response rating (0 to 100 scale) ([1]; 125 g ai/ha): 100
- Wheat plant response rating ([2]; Postemergence, 125 g ai/ha, 0 to 100 scale, 0 no effect, 100 complete control): 70
- Wheat plant response rating [2, 24]: 80
- Plant response rating, Rice [3]: 0
- Plant response rating, Sedge, Umbrella [4]: 95
- Wheat plant response rating [12, 17]: 40
- Wheat plant response rating [12, 18]: 75
- Plant response rating, Wheat [12, 28]: 90
- Wheat plant response rating [12, 29]: 90
- Galium plant response rating [5, 17]: 100
- Galium plant response rating [5, 18]: 100
- Plant response rating, Galium [5, 28]: 100
- Galium plant response rating [5, 29]: 100
- Corn plant response rating [6, 17]: 5
- Corn plant response rating [6, 18]: 50
- Plant response rating, Corn [6, 28]: 75
- Corn plant response rating [6, 29]: 98
- Lambsquarters plant response rating [13, 17]: 75
- Lambsquarters plant response rating [13, 18]: 100
- Plant response rating, Lambsquarters [13, 28]: 100
- Lambsquarters plant response rating [13, 29]: 100
- Ragweed plant response rating [7, 17]: 75
- Ragweed plant response rating [7, 18]: 80
- Plant response rating, Ragweed [7, 28]: 98
- Ragweed plant response rating [7, 29]: 100

Structure (SMILES): O=C(NCC(F)(F)F)c1cc(CCF)n(Cc2ccnc(C(F)(F)F)c2)n1 [Compound 175]
- Pigweed plant response rating (0 to 100 scale) ([1]; 125 g ai/ha): 100
- Pigweed plant response rating [1, 15]: 100
- Wheat plant response rating [2, 24]: 80
- Wheat plant response rating [2, 16]: 40
- Plant response rating, Rice [3]: 25
- Plant response rating, Sedge, Umbrella [4]: 85
- Wheat plant response rating [12, 17]: 0
- Wheat plant response rating [12, 18]: 50
- Plant response rating, Wheat [12, 28]: 85
- Wheat plant response rating [12, 29]: 90
- Galium plant response rating [5, 17]: 85
- Galium plant response rating [5, 18]: 100
- Plant response rating, Galium [5, 28]: 100
- Galium plant response rating [5, 29]: 100
- Corn plant response rating [6, 17]: 20
- Corn plant response rating [6, 18]: 30
- Plant response rating, Corn [6, 28]: 85
- Corn plant response rating [6, 29]: 90
- Lambsquarters plant response rating [13, 17]: 98
- Lambsquarters plant response rating [13, 18]: 100
- Plant response rating, Lambsquarters [13, 28]: 100
- Lambsquarters plant response rating [13, 29]: 100
- Ragweed plant response rating [7, 17]: 80
- Ragweed plant response rating [7, 18]: 90
- Plant response rating, Ragweed [7, 28]: 98
- Ragweed plant response rating [7, 29]: 95
